The values that follow come from patent US9434711B2 (Janssen Pharmaceutica, NV, priority 2007, dated 2016).

The assay addresses canine TRPM8 (Canis lupus familiaris, UniProt Q1A7N1). The assay can be described thus: In Vitro Canine TRPM8 Functional Assay (Ca2+ fluorescence, icilin activation). The class given is cell-based. The settings on record: for IC50: read-out: IC50; for inhibition at 0.5 µM: compound at 0.5 μM, read-out: % Inh @ 0.5; for inhibition at 0.2 µM: read-out: % Inh @ 0.2. The method, boiled down:
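Eight-point dose-response curves, each point averaging quadruplicate wells, gave EC50 or IC50. Canine TRPM8-expressing HEK293 cells, dye-loaded (Calcium 3), were pre-exposed 5 min to compound, then challenged with icilin at roughly EC80; intracellular Ca2+ read by FLIPR or FDSS fluorescence.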

Setting [1] is: HEK293 cells stably expressing canine TRPM8, icilin activation, eight-point dose-response.
[2] abbreviates: canine TRPM8, icilin activation.
The mark [3] stands for this setting: compound at 0.2 μM, canine TRPM8, icilin activation.

Like-named read-outs stand apart in the source and are kept apart here.

Sequence of canine TRPM8 (Q1A7N1 1-1104): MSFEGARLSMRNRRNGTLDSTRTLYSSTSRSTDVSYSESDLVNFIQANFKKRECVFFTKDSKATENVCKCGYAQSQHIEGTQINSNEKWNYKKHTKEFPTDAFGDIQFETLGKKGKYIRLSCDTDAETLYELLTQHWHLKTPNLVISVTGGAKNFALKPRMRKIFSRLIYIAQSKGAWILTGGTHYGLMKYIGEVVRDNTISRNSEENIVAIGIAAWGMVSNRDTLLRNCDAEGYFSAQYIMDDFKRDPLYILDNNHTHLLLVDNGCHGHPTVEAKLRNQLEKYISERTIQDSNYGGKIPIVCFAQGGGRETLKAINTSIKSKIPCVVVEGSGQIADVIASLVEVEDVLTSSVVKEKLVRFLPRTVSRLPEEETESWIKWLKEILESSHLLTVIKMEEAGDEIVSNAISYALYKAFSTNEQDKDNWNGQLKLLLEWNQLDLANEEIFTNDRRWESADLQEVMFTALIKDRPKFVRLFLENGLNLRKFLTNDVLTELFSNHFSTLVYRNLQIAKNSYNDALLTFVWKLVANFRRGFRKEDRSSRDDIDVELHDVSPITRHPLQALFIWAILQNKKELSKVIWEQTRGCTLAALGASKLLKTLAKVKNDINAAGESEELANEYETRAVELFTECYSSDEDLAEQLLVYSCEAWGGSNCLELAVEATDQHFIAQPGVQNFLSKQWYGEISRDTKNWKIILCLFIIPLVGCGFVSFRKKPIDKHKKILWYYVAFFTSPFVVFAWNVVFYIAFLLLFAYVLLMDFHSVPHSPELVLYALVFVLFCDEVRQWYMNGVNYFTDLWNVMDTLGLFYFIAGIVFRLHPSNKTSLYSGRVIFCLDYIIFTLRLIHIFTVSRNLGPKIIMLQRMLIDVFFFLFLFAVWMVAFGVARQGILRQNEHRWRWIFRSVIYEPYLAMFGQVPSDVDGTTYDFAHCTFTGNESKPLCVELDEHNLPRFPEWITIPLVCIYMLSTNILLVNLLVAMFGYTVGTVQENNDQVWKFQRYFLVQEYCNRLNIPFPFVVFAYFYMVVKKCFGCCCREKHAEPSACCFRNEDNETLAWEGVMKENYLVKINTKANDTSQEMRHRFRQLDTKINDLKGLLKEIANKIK

`O=S(=O)(c1ccccc1)N(Cc1ccccc1F)c1cc2ccccc2s1` [Compound 50, N-(Benzo[b]thiophen-2-yl)-N-(2-fluoro-benzyl)-benzenesulfonamide]: the IC50 under setting [1] amounted to 66 nM. For the same compound, the inhibition at 0.5 µM under setting [2] was determined as 99%.
`O=S(=O)(c1cccc(O)c1)N(Cc1ccc(F)c(C(F)(F)F)c1)c1sc2ccccc2c1Br` [Compound 291, N-(3-Bromo-benzo[b]thiophen-2-yl)-N-(4-fluoro-3-trifluoromethyl-benzyl)-3-hydroxy-benzenesulfonamide]: the IC50 under setting [1] was 5.8 nM. Besides, the inhibition at 0.2 µM under setting [3] was 101%.
As for `COC(=O)c1ccc(S(=O)(=O)N(Cc2ccc(OC(F)(F)F)cc2)c2sc3ccccc3c2C2CCC2)cc1` [Compound 754, N-(3-Cyclobutyl-benzo[b]thiophen-2-yl)-N-(4-trifluoromethoxy-benzyl)-4-carbomethoxy-benzenesulfonamide], the IC50 under setting [1] came out at 16.4 nM. In addition, the inhibition at 0.2 µM under setting [3] came out at 82%.
In the case of `CC(C)c1c(N(CCC2CC2)S(=O)(=O)c2ccc(C(=O)O)cc2)sc2ccccc12` [Compound 567, N-(2-Cyclopropyl-ethyl)-N-(3-isopropyl-benzo[b]thiophen-2-yl)-4-carboxy-benzenesulfonamide], the IC50 under setting [1] came to 10.3 nM. For the same compound, under setting [3], the inhibition at 0.2 µM was found to be 104%.
Regarding `Cc1c(N(Cc2ccc(OC(F)(F)F)cc2)S(=O)(=O)c2cccc3cnccc23)sc2ccccc12` [Compound 28, N-(3-Methyl-benzo[b]thiophen-2-yl)-N-(4-trifluoromethoxy-benzyl)-isoquinoline-5-sulfonamide], the IC50 under setting [1] stood at 32 nM. Also, the inhibition at 0.5 µM under setting [2] is 100%.
`O=c1[nH]c(-c2ccc(S(=O)(=O)N(CCC3CC3)c3cc4ccccc4s3)cc2)no1` [Compound 612, N-(Benzo[b]thiophen-2-yl)-N-(cyclopropyl-ethyl)-4-(5-oxo-4,5-dihydro-[1,2,4]oxadiazol-3-yl)-benzenesulfonamide]: the IC50 under setting [1] was found to be 53.7 nM. For the same compound, the inhibition at 0.2 µM under setting [3] is 97%.
`CCS(=O)(=O)N(CCN1CCOCC1)c1sc2ccccc2c1C(C)=O` [Compound 124, N-(3-Acetyl-benzo[b]thiophen-2-yl)-N-(2-morpholin-4-yl-ethyl)-ethanesulfonamide]: under setting [3], the inhibition at 0.2 µM worked out at 14%.
With `O=C(O)c1ccc(S(=O)(=O)N(Cc2ccc(F)c(C(F)(F)F)c2)c2cc3ccccc3s2)cc1` [Compound 296, N-(Benzo[b]thiophen-2-yl)-N-(4-fluoro-3-trifluoromethyl-benzyl)-4-carboxy-benzenesulfonamide], the IC50 under setting [1] came to 2 nM. Moreover, under setting [3], the inhibition at 0.2 µM was 96%.
For `CC(=O)c1c(N(Cc2ccc(F)c(C(F)(F)F)c2)S(C)(=O)=O)sc2ccccc12` [Compound 228, N-(3-Acetyl-benzo[b]thiophen-2-yl)-N-(4-fluoro-3-trifluoromethyl-benzyl)-methanesulfonamide], under setting [1], the IC50 came out at 6 nM. Under setting [3], the inhibition at 0.2 µM came to 101%.
With `COCc1c(N(CCCF)S(=O)(=O)c2ccccc2)sc2ccccc12` [Compound 832, N-(3-Fluoro-propyl)-N-(3-methoxymethyl-benzo[b]thiophen-2-yl)-benzenesulfonamide], the inhibition at 0.2 µM (0.2 μM compound, HEK293 cells stably expressing canine TRPM8, icilin activation) stood at 76%. Besides, the IC50 (HEK293 cells stably expressing canine TRPM8, icilin activation, average of two or more determinations) was found to be 88 nM.
For `O=S(=O)(c1ccc(C(F)(F)F)cc1)N(Cc1ccc(F)c(F)c1)c1cc2ccccc2s1` [Compound 132, N-(Benzo[b]thiophen-2-yl)-N-(3,4-difluoro-benzyl)-4-trifluoromethyl-benzenesulfonamide], the inhibition at 0.5 µM under setting [2] was 56%.
Turning to `O=S(=O)(c1ccccc1)N(CCC(F)(F)F)c1sc2ccccc2c1Br` [Compound 250, N-(3-Bromo-benzo[b]thiophen-2-yl)-N-(3,3,3-trifluoro-propyl)-benzenesulfonamide], the IC50 under setting [1] came out at 12.7 nM. For the same compound, the inhibition at 0.2 µM under setting [3] stood at 102%.
As for `CS(=O)(=O)Nc1ccc(S(=O)(=O)N(Cc2ccc(F)c(C(F)(F)F)c2)c2sc3ccccc3c2Cl)cc1` [Compound 659, N-(3-Chloro-benzo[b]thiophen-2-yl)-N-(4-fluoro-3-trifluoromethyl-benzyl)-4-methanesulfonylamino-benzenesulfonamide], the IC50 under setting [1] amounted to 14.1 nM. Moreover, the inhibition at 0.2 µM under setting [3] came out at 100%.
With `CCCCN(c1sc2ccccc2c1C)S(=O)(=O)c1ccc(C(=O)O)cc1F` [Compound 593, N-(3-Methyl-benzo[b]thiophen-2-yl)-N-(butyl)-2-fluoro-4-carboxy-benzenesulfonamide], the IC50 under setting [1] was determined as 7.6 nM. For the same compound, the inhibition at 0.2 µM under setting [3] was 101%.
`O=S(=O)(c1cccc(F)c1)N(Cc1ccc(F)c(F)c1)c1cc2ccccc2s1` [Compound 131, N-(Benzo[b]thiophen-2-yl)-N-(3,4-difluoro-benzyl)-3-fluoro-benzenesulfonamide]: under setting [1], the 50% inhibitory concentration (IC50) is 48 nM. Under setting [2], the inhibition at 0.5 µM came out at 95%.
`CN(C)S(=O)(=O)c1cccc(S(=O)(=O)N(Cc2ccc(F)c(C(F)(F)F)c2)c2cc3ccccc3s2)c1` [Compound 462, N-(Benzo[b]thiophen-2-yl)-N-(4-fluoro-3-trifluoromethyl-benzyl)-3-N′,N′-dimethylsulfamoyl-benzenesulfonamide]: under setting [3], the “% Inh @ 0.2 (μM)” value is listed as 22%.
As to `C=CCN(c1sc2ccccc2c1Cl)S(=O)(=O)c1ccccc1` [Compound 84, N-(Allyl)-N-(3-chloro-benzo[b]thiophen-2-yl)-benzenesulfonamide], the IC50 under setting [1] turned out to be 35 nM. Further, under setting [2], the inhibition at 0.5 µM came out at 100%.
In the case of `O=S(=O)(c1ccccc1)N(Cc1ccc(F)cc1)c1sc2ccccc2c1Cl` [Compound 4, N-(3-Chloro-benzo[b]thiophen-2-yl)-N-(4-fluoro-benzyl)-benzenesulfonamide], the IC50 under setting [1] came to 4 nM. For the same compound, the inhibition at 0.5 µM under setting [2] is 97%.
On to `CCCCN(c1sc2ccccc2c1Br)S(=O)(=O)c1ccc(-c2nnn[nH]2)cc1` [Compound 428, N-(3-Bromo-benzo[b]thiophen-2-yl)-N-(butyl)-4-(1H-tetrazol-5-yl)-benzenesulfonamide], for which the IC50 under setting [1] amounted to 10 nM. For the same compound, under setting [3], the inhibition at 0.2 µM is 93%.
For `O=C(O)c1cccc(S(=O)(=O)N(Cc2ccc(F)c(C(F)(F)F)c2)c2sc3ccccc3c2Br)c1` [Compound 293, N-(3-Bromo-benzo[b]thiophen-2-yl)-N-(4-fluoro-3-trifluoromethyl-benzyl)-3-carboxy-benzenesulfonamide], the IC50 under setting [1] was 7.8 nM. Further, under setting [3], the inhibition at 0.2 µM is 101%. Also, the inhibition at 0.5 µM under setting [2] amounted to 101%.
On to `NS(=O)(=O)N(CCC(F)(F)F)c1sc2ccccc2c1Br` [Compound 304, N-(3-Bromo-benzo[b]thiophen-2-yl)-N-(3,3,3-trifluoro-propyl)-sulfamide], for which the inhibition at 0.2 µM under setting [3] is 29%.
Regarding `CCS(=O)(=O)N(CC1CCCN1C(=O)OC(C)(C)C)c1sc2ccccc2c1C` (centres unmarked) [Compound 114, N-(3-Methyl-benzo[b]thiophen-2-yl)-N-{[1-(carbo-tert-butoxy)pyrrolidin-2-yl]-methyl}-ethanesulfonamide], under setting [1], the IC50 was determined as 51.1 nM. Besides, the inhibition at 0.2 µM under setting [3] amounted to 93%.
For the compound `O=S(=O)(Nc1ccc(S(=O)(=O)N(CCC2CC2)c2sc3ccccc3c2Br)cc1)C1CC1` [Compound 719, N-(3-Bromo-benzo[b]thiophen-2-yl)-4-cyclopropanesulfonylamino-N-(2-cyclopropyl-ethyl)-benzenesulfonamide], under setting [1], the IC50 amounted to 23 nM. Also, the inhibition at 0.2 µM under setting [3] stood at 100%.
For the compound `COc1cccc(CN(c2cc3ccccc3s2)S(=O)(=O)c2ccccc2)c1` [Compound 48, N-(Benzo[b]thiophen-2-yl)-N-(3-methoxy-benzyl)-benzenesulfonamide], the half-inhibitory concentration (IC50) under setting [1] is 79 nM. Besides, the inhibition at 0.5 µM under setting [2] came out at 98%.
The matching figures for `O=[N+]([O-])c1ccccc1CN(c1sc2ccccc2c1Br)S(=O)(=O)c1ccccc1` [Compound 171, N-(3-Bromo-benzo[b]thiophen-2-yl)-N-(2-nitro-benzyl)-benzenesulfonamide]: 19.3 nM and 100%.
With `COC(=O)c1ccccc1S(=O)(=O)N(Cc1ccc(F)c(C(F)(F)F)c1)c1sc2ccccc2c1Br` [Compound 197, N-(3-Bromo-benzo[b]thiophen-2-yl)-N-(4-fluoro-3-trifluoromethyl-benzyl)-2-carbomethoxy-benzenesulfonamide], the IC50 under setting [1] stood at 7 nM. Also, the inhibition at 0.2 µM under setting [3] turned out to be 99%.
As for `Cc1c(N(Cc2ccc(F)c(C(F)(F)F)c2)S(=O)(=O)c2ccc(C(C)(C)O)cc2)sc2ccccc12` [Compound 374, N-(3-Methyl-benzo[b]thiophen-2-yl)-N-(4-fluoro-3-trifluoromethyl-benzyl)-4-(1-hydroxy-1-methyl-ethyl)-benzenesulfonamide], under setting [1], the 50% inhibitory concentration (IC50) was determined as 4 nM. For the same compound, the inhibition at 0.2 µM under setting [3] was found to be 89%.
As for `Cc1c(N(Cc2ccc(F)c(C(F)(F)F)c2)S(=O)(=O)c2ccc3[nH]c(=O)oc3c2)sc2ccccc12` [Compound 66, N-(4-Fluoro-3-trifluoromethyl-benzyl)-N-(3-methyl-benzo[b]thiophen-2-yl)-2-oxo-2,3-dihydro-benzooxazole-6-sulfonamide], the IC50 under setting [1] was found to be 4 nM. In addition, the inhibition at 0.2 µM under setting [3] turned out to be 96%.
Regarding `COC(=O)CCS(=O)(=O)N(CCCCC(F)(F)F)c1sc2ccccc2c1C` [Compound 603, N-(3-Methyl-benzo[b]thiophen-2-yl)-N-(5,5,5-trifluoro-pentyl)-2-carbomethoxy-ethanesulfonamide], the IC50 under setting [1] amounted to 10.3 nM. Further, the inhibition at 0.2 µM under setting [3] was found to be 101%.
For the compound `COC(=O)c1ccc(S(=O)(=O)N(Cc2ccc(F)c(C(F)(F)F)c2)c2cc3ccccc3s2)cc1` [Compound 135, N-(Benzo[b]thiophen-2-yl)-N-(4-fluoro-3-trifluoromethyl-benzyl)-4-carbomethoxy-benzenesulfonamide], the inhibition at 0.2 µM under setting [3] came to 18%.
